{
  "source": "paper PMC5075766",
  "about": "“Antiplasmodial Activity Is an Ancient and Conserved Feature of Tick Defensins” (Frontiers in Microbiology, 2016)",
  "system": "blood stages of P. falciparum",
  "format": "cell-based, Plasmodium falciparum",
  "details": "48 h, starting parasitemia 0.5%, haematocrit 1%, SYBR Green I flow cytometry",
  "protocol": "The growth inhibition assay was described in detail in [Fréville et al. (2013)]. Briefly, assays were carried out in 96-well plates with a starting parasitemia of 0.5% at a haematocrit of 1% using SYBR Green I ([Kelly et al., 2009]). The peptides were added to the culture at different concentrations ranging from 6.25 μM to 50 μM (final concentrations) in a volume of 250 μl of RPMI-AlbuMAX (0.5%) and incubated for an additional 48 h to allow all stages to complete one cycle. Cultures were stained for 30 min in the dark with SYBR Green I 1X (Invitrogen) diluted in 20 mM Tris pH8.8, 138 mM NaCl, and fixed with 1% paraformaldehyde. Fixed parasited red blood cells (RBC) were stored at 4°C in the dark until flow cytometry analysis. Parasite growth was assessed by flow cytometry on a BD FACSCantoII (BD Biosciences). Cell pairs were excluded from the analysis using a forward scatter (FSC)-width versus FSC-area dot plot. […] Fluorescence analysis (Green fluorescence) was performed using BD FACSDiva software (version 6.1.3, BD Biosciences) on a total of 200,000 acquired events. Fluorescence was observed as described by [Izumiyama et al. (2009)] on a two-parameter dot plot (Green fluoresecence-FSC). Fluorescence of non-infected RBC was adjusted to plot between […]. Results are expressed as the percentage of growth inhibition. […]",
  "note": "Read-outs that look alike come from different tables or passages of the source. Positions of bridges follow the written chain, without caps; N, C: chain ends. Residues, ends and D or L forms follow the SMILES beside them.",
  "data": [
    {"compound": "CC[C@H](C)[C@H](NC(=O)[C@@H]1CSSC[C@@H]2NC(=O)[C@H](Cc3c[nH]cn3)NC(=O)[C@H](CCCNC(=N)N)NC(=O)[C@H](CC(=O)O)NC(=O)[C@@H]3CSSC[C@H](NC(=O)[C@H]([C@@H](C)O)NC(=O)[C@H](CC(C)C)NC(=O)[C@H](CCCCN)NC(=O)[C@H](Cc4c[nH]c5ccccc45)NC(=O)[C@H](CCCNC(=N)N)NC(=O)CNC(=O)CNC(=O)[C@H](CSSC[C@H](NC(=O)[C@H](Cc4ccccc4)NC(=O)[C@H](Cc4ccccc4)NC(=O)CN)C(=O)N4CCC[C@H]4C(=O)N[C@@H](Cc4ccc(O)cc4)C(=O)N[C@@H](CC(N)=O)C(=O)NCC(=O)N[C@@H](Cc4ccc(O)cc4)C(=O)N3)NC(=O)[C@H](Cc3ccc(O)cc3)NC(=O)CNC(=O)CNC(=O)[C@H](CCCNC(=N)N)NC(=O)[C@H](CCCNC(=N)N)NC(=O)[C@H](CCCNC(=N)N)NC(=O)[C@H](CC(C)C)NC(=O)[C@H](CCCCN)NC(=O)[C@H](CCCCN)NC(=O)[C@H](CCCNC(=N)N)NC2=O)C(=O)N[C@@H]([C@@H](C)CC)C(=O)N1)C(=O)N[C@@H](CCSC)C(=O)N[C@@H](CC(N)=O)C(=O)O", "note": "[DefMT5] (H-GFFCPYNGYCDRHCRKKLRRRGGYCGGRWKLTCICIMN-OH; disulfide 4-25, 10-33, 14-35; N-terminus assumed)", "values": [
      {"measurement": "P. falciparum growth inhibition", "setting": "6.25 μM peptide", "result": 20, "unit": "%"},
      {"measurement": "P. falciparum growth inhibition", "setting": "50 μM peptide (highest concentration tested)", "result": "~100", "unit": "%"}
    ]}
  ]
}
